Measurements published in US12544371B2, “Methods and compositions for treating acute lung injury and acute respiratory distress syndrome” (CalciMedica, Inc., priority 2020, dated 2026).

What was measured:
[1] = Phase 1 single ascending dose study (Compound 1 Test 101), healthy subjects; format: in vivo, human
Source text: Two Phase 1 studies of N-(5-(6-Chloro-2,2-difluorobenzo[d][1,3]dioxol-5-yl)pyrazin-2-yl)-2-fluoro-6-methylbenzamide (Compound 1) have been conducted in healthy subjects: a single ascending dose (SAD) study (Compound 1 Test 101) and a multiple ascending dose (MAD) study (Compound 1 Test 102). In Compound 1 Test 101 (Table 1), 32 healthy subjects were enrolled in five groups and randomized in a 3:1 ratio to receive a single dose of active versus placebo. The dose levels for each group are noted in Table 1. The dose volume of the emulsion was fixed at 1.3 mL/kg for all subjects in the SAD study groups, and an injectable emulsion of Compound 1 or placebo was administered via a 4-hour IV infusion.
Plasma concentrations of compound rise steadily during the 4-hour infusion, with Tmax achieved at the end of infusion (4 hours). After the end of infusion, there is a rapid and prominent distribution phase followed by a prolonged period of residual drug levels. The terminal elimination phase has not yet been fully characterized as it appears to be much longer than was anticipated based on pre-clinical PK data in mouse, rat, dog and monkey. Plasma concentrations during the terminal phase are approximately 5% of Cmax values and, as indicated above, to date there have been no clinically significant AEs reported during this phase. Plasma exposures, defined by AUC0-24 h, appear to be dose-proportional and reached a maximum of 6710 ng*h/mL in Group 5, which is 4.3-fold below the mean AUC24 h in monkey at the NOAEL (29,000 ng*hr/mL).

[2] = Phase 2 trial in severe COVID-19 pneumonia, interim results; format: in vivo, human; details: for Difference (Compound 1 − Standard Care), estimated mean of ordinal scale: MMRM; for Difference (Compound 1 − Standard Care), ordinal scale, sensitivity analysis: three patients with PaO2/FiO2<100 removed
Method: A phase 2 clinical trial is performed to evaluate Compound 1 in patients with severe COVID-19 pneumonia. The study will investigate the use of Compound 1 in patients with severe COVID-19 pneumonia who are at risk for progression to acute respiratory distress syndrome (ARDS).
Compound 1 Dose and Route of Administration: 2.0 mg/kg of an injectable emulsion of Compound 1 will be administered at 0 hour and 1.6 mg/kg will be administered at both 24 hours and 48 hours from the Start of the First Infusion of Study Drug (SFISD).
Study Design: In this randomized controlled open-label stage study, 60 patients who meet all of the inclusion criteria and none of the exclusion criteria will be randomized 2:1 to receive Compound 1 or continue with the local standard of care. The dose of Compound 1 will be 2.0 mg/kg of Compound 1 administered at 0 hour, and 1.6 mg/kg at 24 hours and 1.6 mg/kg at 48 hours. The SFISD should occur within 8 hours of the patient or LAR providing informed consent. The dosing will be based on actual body weight obtained at the time of hospitalization or screening for the study. A study physician or appropriately trained delegate will perform assessments at screening, immediately prior to the SFISD, and immediately prior to each subsequent infusion. At 72 hours after the SFISD, the patient will be assessed every 24 hours (±4 hours) until Day 30 after the SFISD, or until discharge if earlier. Patients who are discharged before Day 25 after the SFISD will be contacted at Day 30 (±5 days) and Day 60 (+5 days) for a safety and mortality assessment. Patients randomized to receive local standard of care will not have blood samples drawn for PK assessments.
Interim results for the phase 2 trial have been obtained, as follows. 18 patients with severe COVID-19 pneumonia have been enrolled, in which 12 treated have been treated with an injectable emulsion of Compound 1, and 6 have received the standard of care. 3 sites are currently enrolling patients. 11 of the enrolled patients are at site 1 (8 treated and 3 SOC), 3 are at site 2 (1 treated and 2 SOC), and 4 are at site 3 (3 treated and 1 SOC). The subjects with severe COVID-19 were those that necessitated low-flow oxygen treatment.
Compound 1 in Severe COVID-19 Pneumonia: Time to Hospital Discharge. One subject in standard care group was discharged with low flow treatment and is considered as censored at discharge instead of out of hospital. 3 patients who died were censored at Day 30. […] Similar improvements would be expected upon treatment with other intracellular Calcium signaling inhibitors or CRAC inhibitors.
Compound 1 in Severe COVID-19 Pneumonia: Ordinal Scale Analysis. The data in are based on an MMRM model and missing at random assumption. The ordinal scale was as follows: 1. Death 2. Hospitalized, on invasive mechanical ventilation or ECMO 3. Hospitalized, on non-invasive ventilation or high flow oxygen devices 4. Hospitalized, requiring low flow supplemental oxygen 5. Hospitalized, not requiring supplemental oxygen—requiring ongoing medical care (coronavirus (e.g. COVID-19) related or otherwise) 6. Hospitalized, not requiring supplemental oxygen—no longer requires ongoing medical care (other than per protocol study drug administration) 7. Not hospitalized. […] Similar improvements would be expected upon treatment with other intracellular Calcium signaling inhibitors or CRAC inhibitors.

[3] = test system: human blood and plasma; test: Hemolysis testing
Source text: Hemolysis testing concluded that Compound 1 was compatible with human plasma and non-hemolytic in human blood.

[4] = test system: IL-17 release by human PBMCs; test: IL-17 release by human PBMCs, isolated cell assay; format: cell-based; details: PBMC, SEM (n), read-out: Compound 1 IC50, IL-17 release by human PBMCs
Source text: CRAC channels may play a proximal role in a calcium-calcineurin pathway leading to cytokine release in immune cells.

**Q.** Which results are given for `Cc1cccc(F)c1C(=O)Nc1cnc(-c2cc3c(cc2Cl)OC(F)(F)O3)cn1` [Compound 1, N-(5-(6-Chloro-2,2-difluorobenzo[d][1,3]dioxol-5-yl)pyrazin-2-yl)-2-fluoro-6-methylbenzamide]?
**A.** margin of AUC0-24 h below mean AUC24 h in monkey at the NOAEL ([1]; SAD Group 5): 4.3 fold; Tmax ([1]; human, in vivo): 4 h; cardiac function: heart rate, QTcF, cardiac troponin-T, B-type natriuretic peptide ([1]; human, in vivo): no evidence of any treatment related effect; clinically significant laboratory abnormalities ([1]; human, in vivo): No laboratory abnormalities; distribution compartments, non-compartmental PK analysis ([1]; human, in vivo): three compartments; dose proportionality of plasma exposure (AUC0-24 h) ([1]; human, in vivo): dose-proportional; number of clinical AEs (all mild) ([1]; human, in vivo): three; plasma concentrations during the terminal phase relative to Cmax ([1]; human, in vivo): approximately 5 % of Cmax; systolic or diastolic blood pressure ([1]; human, in vivo): no evidence of any sustained treatment related increase; AUC(0-t) ([1]; human, in vivo, 2.1 mg/kg): 6710 ng·h/mL; Difference (Compound 1 − Standard Care), estimated mean of ordinal scale ([2]; Study Day 0): 0.00; Difference (Compound 1 − Standard Care), ordinal scale, sensitivity analysis ([2]; Study Day 0): 0.00; Difference (Compound 1 − Standard Care), estimated mean of ordinal scale ([2]; Study Day 1): 0.75; Difference (Compound 1 − Standard Care), ordinal scale, sensitivity analysis ([2]; Study Day 1): 0.70; Difference (Compound 1 − Standard Care), estimated mean of ordinal scale ([2]; Study Day 2): 0.83; Difference (Compound 1 − Standard Care), ordinal scale, sensitivity analysis ([2]; Study Day 2): 0.80; Difference (Compound 1 − Standard Care), estimated mean of ordinal scale ([2]; Study Day 3): 1.17; Difference (Compound 1 − Standard Care), ordinal scale, sensitivity analysis ([2]; Study Day 3): 1.10; Difference (Compound 1 − Standard Care), estimated mean of ordinal scale ([2]; Study Day 4): 1.73; Difference (Compound 1 − Standard Care), ordinal scale, sensitivity analysis ([2]; Study Day 4): 1.76; Difference (Compound 1 − Standard Care), estimated mean of ordinal scale ([2]; Study Day 5): 1.87; Difference (Compound 1 − Standard Care), ordinal scale, sensitivity analysis ([2]; Study Day 5): 2.02; Difference (Compound 1 − Standard Care), estimated mean of ordinal scale ([2]; Study Day 6): 2.04; Difference (Compound 1 − Standard Care), ordinal scale, sensitivity analysis ([2]; Study Day 6): 2.23; Difference (Compound 1 − Standard Care), estimated mean of ordinal scale ([2]; Study Day 7): 1.30; Difference (Compound 1 − Standard Care), ordinal scale, sensitivity analysis ([2]; Study Day 7): 1.79; Difference (Compound 1 − Standard Care), estimated mean of ordinal scale ([2]; Study Day 8): 1.39; Difference (Compound 1 − Standard Care), ordinal scale, sensitivity analysis ([2]; Study Day 8): 1.89; Difference (Compound 1 − Standard Care), estimated mean of ordinal scale ([2]; Study Day 9): 1.48; Difference (Compound 1 − Standard Care), ordinal scale, sensitivity analysis ([2]; Study Day 9): 1.90; Difference (Compound 1 − Standard Care), estimated mean of ordinal scale ([2]; Study Day 10): 1.21; Difference (Compound 1 − Standard Care), ordinal scale, sensitivity analysis ([2]; Study Day 10): 1.81; Difference (Compound 1 − Standard Care), estimated mean of ordinal scale ([2]; Study Day 12): 1.31; Difference (Compound 1 − Standard Care), ordinal scale, sensitivity analysis ([2]; Study Day 12): 1.81; Difference (Compound 1 − Standard Care), estimated mean of ordinal scale ([2]; Study Day 14): 1.05; Difference (Compound 1 − Standard Care), ordinal scale, sensitivity analysis ([2]; Study Day 14): 2.07; Difference (Compound 1 − Standard Care), ordinal scale, sensitivity analysis ([2]; Study Day 16): 1.82; Difference (Compound 1 − Standard Care), ordinal scale, sensitivity analysis ([2]; Study Day 18): 1.83; ordinal scale (7-point) ([2]; interim): improvement; Subjects out of hospital ([2]; interim, 9/12 subjects): 9/12 (75%); PaO2/FiO2 ([2]; interim, following administration): increased; probability of being at a hospital over time ([2]; interim, versus standard care): lower probability of being at a hospital over time; KM estimate of number of days in hospital, median ([2]; interim, 95% CI (4 days, na)): 5.5 days (4 days, na); compatibility with human plasma [3]: compatible; hemolysis in human blood [3]: non-hemolytic; IC50 [4]: 122 ± 36 nM
